Source: patent publication US20100041630A1, “Methods for Treating or Preventing Inflammation Using a Glycerophosphate Salt” (PRELIEF INC., priority 2007, published 2010)

System: rats with inflammatory condition associated with polyarthritis
Test: Therapeutic effectiveness in rats with polyarthritis induced by heat-killed Mycobacterium tuberculosis
Assay type: in vivo
Conditions: therapeutically effective amount, injection 1 to 5 times a day for 3-10 days, polyarthritic rats

calcium glycerophosphate [CGP]
reduction of the overall arthritis score: at least 20%
